In article PMC8155022 (Scientific Reports, 2021):

What was measured:
PPARβ = target: T1, PPARβ (Homo sapiens, UniProt Q03181); test: nuclear receptor cellular GAL4 reporter assay; format: cell-based; conditions: agonist and antagonist mode; read-out: potency in agonist and antagonist mode
T1 construct: expressed in transfected cells

FXR = target: T2, FXR (Homo sapiens, UniProt Q96RI1); test: nuclear receptor cellular GAL4 reporter assay; format: cell-based; conditions: agonist and antagonist mode; read-out: potency in agonist and antagonist mode
T2 construct: expressed in transfected cells

VDR = target: T3, VDR (Homo sapiens, UniProt P11473); test: nuclear receptor cellular GAL4 reporter assay; format: cell-based; conditions: agonist and antagonist mode; read-out: potency in agonist and antagonist mode
T3 construct: expressed in transfected cells

MR = target: T4, MR (Homo sapiens, UniProt P08235); test: nuclear receptor cellular GAL4 reporter assay; format: cell-based; conditions: agonist and antagonist mode; read-out: potency in agonist and antagonist mode
T4 construct: expressed in transfected cells

AR = target: T5, AR (Homo sapiens, UniProt P10275); test: nuclear receptor cellular GAL4 reporter assay; format: cell-based; conditions: agonist and antagonist mode; read-out: potency in agonist and antagonist mode
T5 construct: expressed in transfected cells

beta 1 (h) = target: T6, beta 1 (h) (Homo sapiens, UniProt P08588); test: Cerep panel; format: binding
T6 construct: purchased Cerep (receptors, ion channels, transporters); Eurofins Panlabs (kinases)
Description: (§1) A panel of 52 different receptors, ion channels and transporters was tested by Cerep, Inc. (Redmond, WA).

ORL1 (h) (NOP) = target: T7, ORL1 (h) (NOP) (Homo sapiens, UniProt P41146); test: Cerep panel; format: binding
T7 construct: purchased Cerep (receptors, ion channels, transporters); Eurofins Panlabs (kinases)
Description: as §1

5-HT1B = target: T8, 5-HT1B (Rattus norvegicus, UniProt P28564); test: Cerep panel; format: binding
T8 construct: purchased Cerep (receptors, ion channels, transporters); Eurofins Panlabs (kinases)
Description: as §1

5-HT7 (h) = target: T9, 5-HT7 (h) (Homo sapiens, UniProt P34969); test: Cerep panel; format: binding
T9 construct: purchased Cerep (receptors, ion channels, transporters); Eurofins Panlabs (kinases)
Description: as §1

V1a (h) = target: T10, V1a (h) (Homo sapiens, UniProt P37288); test: Cerep panel; format: binding
T10 construct: purchased Cerep (receptors, ion channels, transporters); Eurofins Panlabs (kinases)
Description: as §1

5-HT-T = target: T11, 5-HT-T (Homo sapiens, UniProt P31645); test: Cerep panel; format: binding
T11 construct: purchased Cerep (receptors, ion channels, transporters); Eurofins Panlabs (kinases)
Description: (§2) 28 GPCRs were evaluated through cAMP or calcium FLIPR assays[67]. A panel of 52 different receptors, ion channels and transporters was tested by Cerep, Inc. (Redmond, WA).

5HT1B = 5HT1B (Homo sapiens, UniProt P28222); test: GPCR panel, cAMP or calcium FLIPR assays; format: cell-based
Description: as §2

A2A = A2A (Homo sapiens, UniProt P29274); test: GPCR panel, cAMP or calcium FLIPR assays; format: cell-based
Description: (§3) 28 GPCRs were evaluated through cAMP or calcium FLIPR assays[67].

ADRB1 = ADRB1 (Homo sapiens, UniProt P08588); test: GPCR panel, cAMP or calcium FLIPR assays; format: cell-based
Description: as §3

ETA = ETA (Homo sapiens, UniProt P25101); test: GPCR panel, cAMP or calcium FLIPR assays; format: cell-based
Description: as §3

MOP = MOP (Homo sapiens, UniProt P35372); test: GPCR panel, cAMP or calcium FLIPR assays; format: cell-based
Description: (§4) 28 GPCRs were evaluated through cAMP or calcium FLIPR assays[67]. A panel of 52 different receptors, ion channels and transporters was tested by Cerep, Inc. (Redmond, WA). Kinase selectivity was conducted by Eurofins Panlabs Inc (St Charles, MO).

V1A = V1A (Homo sapiens, UniProt P37288); test: GPCR panel, cAMP or calcium FLIPR assays; format: cell-based
Description: as §4

Aurora-A(h) = target: T12, Aurora-A(h) (Homo sapiens, UniProt O14965); test: Kinase panel; format: biochemical
T12 construct: purchased Cerep (receptors, ion channels, transporters); Eurofins Panlabs (kinases)
Description: (§5) Kinase selectivity was conducted by Eurofins Panlabs Inc (St Charles, MO).

FGFR1(h) = target: T13, FGFR1(h) (Homo sapiens, UniProt P11362); test: Kinase panel; format: biochemical
T13 construct: purchased Cerep (receptors, ion channels, transporters); Eurofins Panlabs (kinases)
Description: as §5

GSK3α(h) = target: T14, GSK3α(h) (Homo sapiens, UniProt P49840); test: Kinase panel; format: biochemical
T14 construct: purchased Cerep (receptors, ion channels, transporters); Eurofins Panlabs (kinases)
Description: as §5

JAK3(h) = target: T15, JAK3(h) (Homo sapiens, UniProt P52333); test: Kinase panel; format: biochemical
T15 construct: purchased Cerep (receptors, ion channels, transporters); Eurofins Panlabs (kinases)
Description: as §5

ROCK-I(h) = target: T16, ROCK-I(h) (Homo sapiens, UniProt Q13464); test: Kinase panel; format: biochemical
T16 construct: purchased Cerep (receptors, ion channels, transporters); Eurofins Panlabs (kinases)
Description: as §5

SAPK4(h) = target: T17, SAPK4(h) (Homo sapiens, UniProt O15264); test: Kinase panel; format: biochemical
T17 construct: purchased Cerep (receptors, ion channels, transporters); Eurofins Panlabs (kinases)
Description: as §5

ZIPK(h) = target: T18, ZIPK(h) (Homo sapiens, UniProt O43293); test: Kinase panel; format: biochemical
T18 construct: purchased Cerep (receptors, ion channels, transporters); Eurofins Panlabs (kinases)
Description: as §5

[1] = target: hGABAAα1β2γ2-gated Cl− channel (Homo sapiens, UniProt P14867+P18507+P47870); test: follow-up functional study; format: cell-based; conditions: read-out: IC50 in follow-up functional studies
[2] = test system: ex vivo stimulated IL-17A production in the blood; test: mouse PK/PD model, ex vivo stimulated IL-17A production; conditions: 100 mg/kg oral; for inhibition at 100 mg/kg: 5-fold diluted blood
From the text: Compound concentrations are also listed as undiluted (measured) and diluted (extrapolated) in Supplementary Table S2.

[3] = test system: mouse collagen-induced arthritis (CIA) model; test: mouse collagen-induced arthritis (CIA) model; format: in vivo; conditions: for reduction of clinical arthritis scores (AUC) vs vehicle, efficacy % inhibition: day 21-35
Description: On Day 0, mice (female DBA/1Lacj, Jackson Laboratories; 8–10 weeks) were immunized at the base of the tail with an emulsion containing equal amounts of Chick Type II Collagen (Chondrex, Redmond, WA) and Complete-Freund’s adjuvant (CFA, Chondrex), 100 µg each per mouse, and administered a second immunization boost on day 21. On this day, animals were examined for clinical arthritis scores and randomized into treatment groups. […] Clinical arthritis scores were evaluated from day 21 to 34, and animals were euthanized under CO2 on day 35. Both hind paws from each animal were collected and fixed in 10% neutral buffered formalin for histopathology.

TK6 = test: mammalian cell (TK6) micronucleus test; format: cell-based; conditions: in vitro
dogs = test: chronic dosing up to 9 months in dogs; format: in vivo; conditions: dog, data not shown, reversible
From the text: This is consistent with the reported physiological role of RORγt as a critical molecule in controlling the survival of thymocytes[7],[66]. JNJ-61803534-induced thymocyte apoptosis was reversible and was deemed non-adverse alterations.

T8 sequence (P28564 whole entry): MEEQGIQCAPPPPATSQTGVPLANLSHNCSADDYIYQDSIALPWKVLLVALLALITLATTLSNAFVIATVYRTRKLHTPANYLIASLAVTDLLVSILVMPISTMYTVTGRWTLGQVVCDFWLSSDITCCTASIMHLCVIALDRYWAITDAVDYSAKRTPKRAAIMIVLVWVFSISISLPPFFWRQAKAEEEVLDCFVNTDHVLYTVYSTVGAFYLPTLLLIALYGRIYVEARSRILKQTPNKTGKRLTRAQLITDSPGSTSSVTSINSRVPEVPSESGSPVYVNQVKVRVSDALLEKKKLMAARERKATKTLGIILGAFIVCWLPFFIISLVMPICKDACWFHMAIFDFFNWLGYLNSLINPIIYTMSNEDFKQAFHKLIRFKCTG
T14 sequence (P49840 whole entry): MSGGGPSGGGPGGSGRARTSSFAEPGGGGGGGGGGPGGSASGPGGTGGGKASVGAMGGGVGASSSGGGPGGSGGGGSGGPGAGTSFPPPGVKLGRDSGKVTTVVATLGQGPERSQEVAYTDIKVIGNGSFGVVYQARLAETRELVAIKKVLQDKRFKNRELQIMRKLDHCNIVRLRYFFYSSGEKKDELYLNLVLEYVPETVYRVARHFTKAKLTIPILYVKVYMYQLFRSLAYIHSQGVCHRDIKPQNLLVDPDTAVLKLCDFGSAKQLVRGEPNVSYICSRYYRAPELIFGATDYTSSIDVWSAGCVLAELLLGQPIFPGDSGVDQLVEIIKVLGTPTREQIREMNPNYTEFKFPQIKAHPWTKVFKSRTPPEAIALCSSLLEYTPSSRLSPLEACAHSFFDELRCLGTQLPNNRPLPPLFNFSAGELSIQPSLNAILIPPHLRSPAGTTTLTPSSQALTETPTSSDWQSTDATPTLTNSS
Sequence of A2A (P29274 whole entry): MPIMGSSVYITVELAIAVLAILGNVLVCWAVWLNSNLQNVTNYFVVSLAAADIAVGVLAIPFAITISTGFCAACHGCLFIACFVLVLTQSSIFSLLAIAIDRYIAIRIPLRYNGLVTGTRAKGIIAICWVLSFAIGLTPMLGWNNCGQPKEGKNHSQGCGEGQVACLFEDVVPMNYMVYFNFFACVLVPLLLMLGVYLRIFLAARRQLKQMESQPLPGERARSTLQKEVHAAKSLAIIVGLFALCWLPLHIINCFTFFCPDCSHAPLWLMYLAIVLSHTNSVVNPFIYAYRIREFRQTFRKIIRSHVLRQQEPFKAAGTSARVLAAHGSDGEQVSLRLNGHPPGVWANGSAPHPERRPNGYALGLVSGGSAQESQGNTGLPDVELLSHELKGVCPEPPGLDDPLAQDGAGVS
Sequence of 5HT1B (P28222 whole entry, species assumed): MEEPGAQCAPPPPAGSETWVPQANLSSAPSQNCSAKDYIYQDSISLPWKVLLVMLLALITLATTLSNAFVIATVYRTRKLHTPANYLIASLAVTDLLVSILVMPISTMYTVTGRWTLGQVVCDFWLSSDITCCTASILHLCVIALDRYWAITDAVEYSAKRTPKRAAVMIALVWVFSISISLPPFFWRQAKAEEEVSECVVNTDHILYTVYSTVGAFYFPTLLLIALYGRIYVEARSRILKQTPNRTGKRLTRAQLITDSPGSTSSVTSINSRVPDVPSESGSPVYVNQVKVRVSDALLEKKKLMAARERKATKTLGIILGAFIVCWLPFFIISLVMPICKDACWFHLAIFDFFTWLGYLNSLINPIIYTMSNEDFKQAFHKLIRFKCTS
T12 sequence (O14965 whole entry): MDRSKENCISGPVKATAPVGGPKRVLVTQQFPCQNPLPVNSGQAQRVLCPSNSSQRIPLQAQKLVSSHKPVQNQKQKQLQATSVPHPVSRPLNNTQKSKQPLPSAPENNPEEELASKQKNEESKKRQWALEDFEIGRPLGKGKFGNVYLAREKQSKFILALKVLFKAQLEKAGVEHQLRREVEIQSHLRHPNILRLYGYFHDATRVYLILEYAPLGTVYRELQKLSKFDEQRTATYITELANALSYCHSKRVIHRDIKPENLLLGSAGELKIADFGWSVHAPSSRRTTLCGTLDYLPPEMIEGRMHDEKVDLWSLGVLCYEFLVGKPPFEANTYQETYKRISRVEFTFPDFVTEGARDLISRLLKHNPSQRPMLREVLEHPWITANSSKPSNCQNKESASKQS
T6 sequence (P08588 whole entry): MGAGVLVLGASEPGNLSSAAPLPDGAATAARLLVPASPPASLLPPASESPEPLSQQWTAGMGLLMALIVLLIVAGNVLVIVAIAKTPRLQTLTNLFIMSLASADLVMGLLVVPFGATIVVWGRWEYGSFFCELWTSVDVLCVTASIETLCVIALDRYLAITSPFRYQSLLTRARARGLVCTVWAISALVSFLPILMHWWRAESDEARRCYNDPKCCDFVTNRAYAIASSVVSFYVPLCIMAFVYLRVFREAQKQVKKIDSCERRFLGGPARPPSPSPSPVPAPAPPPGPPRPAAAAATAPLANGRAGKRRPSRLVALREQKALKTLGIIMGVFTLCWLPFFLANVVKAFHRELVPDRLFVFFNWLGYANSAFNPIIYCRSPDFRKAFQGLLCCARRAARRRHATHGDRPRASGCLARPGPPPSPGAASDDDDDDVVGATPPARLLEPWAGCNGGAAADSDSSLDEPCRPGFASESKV
Sequence of ADRB1 (P08588 whole entry): as above
T16 sequence (Q13464 whole entry): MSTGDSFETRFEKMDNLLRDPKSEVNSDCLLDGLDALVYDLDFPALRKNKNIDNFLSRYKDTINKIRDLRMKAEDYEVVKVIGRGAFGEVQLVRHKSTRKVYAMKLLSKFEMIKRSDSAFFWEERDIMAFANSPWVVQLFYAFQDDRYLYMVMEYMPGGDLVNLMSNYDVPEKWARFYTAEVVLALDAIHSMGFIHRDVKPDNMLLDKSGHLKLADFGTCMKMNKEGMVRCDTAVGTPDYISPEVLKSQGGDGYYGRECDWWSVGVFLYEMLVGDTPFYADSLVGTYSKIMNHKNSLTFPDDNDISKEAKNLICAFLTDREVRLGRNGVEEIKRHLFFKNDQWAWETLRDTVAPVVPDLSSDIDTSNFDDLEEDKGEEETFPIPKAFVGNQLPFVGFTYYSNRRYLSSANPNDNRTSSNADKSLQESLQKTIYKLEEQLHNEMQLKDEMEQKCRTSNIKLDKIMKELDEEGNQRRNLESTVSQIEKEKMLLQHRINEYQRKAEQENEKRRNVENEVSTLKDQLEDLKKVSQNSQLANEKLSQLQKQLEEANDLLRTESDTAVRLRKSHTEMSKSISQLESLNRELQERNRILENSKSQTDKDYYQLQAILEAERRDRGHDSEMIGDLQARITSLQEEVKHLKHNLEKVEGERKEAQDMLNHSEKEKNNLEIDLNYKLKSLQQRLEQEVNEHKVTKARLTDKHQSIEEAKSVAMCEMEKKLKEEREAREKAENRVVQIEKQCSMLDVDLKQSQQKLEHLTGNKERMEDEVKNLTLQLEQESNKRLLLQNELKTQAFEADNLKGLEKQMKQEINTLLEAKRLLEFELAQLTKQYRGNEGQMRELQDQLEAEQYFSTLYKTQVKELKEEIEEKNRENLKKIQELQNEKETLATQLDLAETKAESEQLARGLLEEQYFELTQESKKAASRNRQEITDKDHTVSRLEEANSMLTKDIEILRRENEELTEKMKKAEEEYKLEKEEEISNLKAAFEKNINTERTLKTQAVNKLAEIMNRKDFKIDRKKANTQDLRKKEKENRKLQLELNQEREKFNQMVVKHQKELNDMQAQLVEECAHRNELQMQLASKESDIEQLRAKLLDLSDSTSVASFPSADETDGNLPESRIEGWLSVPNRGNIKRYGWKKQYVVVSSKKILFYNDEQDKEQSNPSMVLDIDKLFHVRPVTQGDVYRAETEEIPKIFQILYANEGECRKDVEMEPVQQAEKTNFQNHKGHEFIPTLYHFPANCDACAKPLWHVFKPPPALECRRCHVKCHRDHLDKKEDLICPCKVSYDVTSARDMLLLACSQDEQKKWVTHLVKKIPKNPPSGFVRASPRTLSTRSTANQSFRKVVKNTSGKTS
T18 sequence (O43293 whole entry): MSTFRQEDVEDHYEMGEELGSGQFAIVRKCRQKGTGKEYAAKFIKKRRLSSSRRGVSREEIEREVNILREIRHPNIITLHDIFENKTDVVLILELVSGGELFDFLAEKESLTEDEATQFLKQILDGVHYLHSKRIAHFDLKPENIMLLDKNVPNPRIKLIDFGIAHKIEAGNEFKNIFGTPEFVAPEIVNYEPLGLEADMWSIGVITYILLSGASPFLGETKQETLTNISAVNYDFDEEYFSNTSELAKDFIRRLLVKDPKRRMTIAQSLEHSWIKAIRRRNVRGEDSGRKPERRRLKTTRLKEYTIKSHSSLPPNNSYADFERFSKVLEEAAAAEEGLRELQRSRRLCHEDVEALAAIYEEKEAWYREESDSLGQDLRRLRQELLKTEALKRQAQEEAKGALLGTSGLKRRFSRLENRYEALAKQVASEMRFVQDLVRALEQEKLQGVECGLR
Sequence of MOP (P35372 whole entry): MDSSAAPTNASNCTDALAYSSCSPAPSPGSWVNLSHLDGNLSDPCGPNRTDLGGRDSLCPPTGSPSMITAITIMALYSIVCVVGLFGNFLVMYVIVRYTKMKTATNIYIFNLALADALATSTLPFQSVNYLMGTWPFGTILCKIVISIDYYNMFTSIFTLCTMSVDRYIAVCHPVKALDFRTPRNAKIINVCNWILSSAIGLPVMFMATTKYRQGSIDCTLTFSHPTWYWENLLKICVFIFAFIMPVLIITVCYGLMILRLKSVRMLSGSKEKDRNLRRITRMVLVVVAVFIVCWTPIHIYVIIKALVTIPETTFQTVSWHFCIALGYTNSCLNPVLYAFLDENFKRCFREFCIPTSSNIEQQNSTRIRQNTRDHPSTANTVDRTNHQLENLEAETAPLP

In the case of `CC1CCCN1C(=O)c1nc(C(=O)NCC(C)(C)O)sc1-c1ccc(C(O)(C(F)(F)F)C(F)(F)F)c(Cl)c1Cl` (stereo not drawn) [JNJ-61803534], the IC50 (PPARβ) is reported as greater than 1.5 µM, the IC50 (FXR) is reported as greater than 1.5 µM and the IC50 (VDR) is reported as greater than 1.5 µM. The IC50 (MR) was greater than 1.5 µM, the IC50 (AR) was greater than 1.5 µM and the inhibition at 1 µM (beta 1 (h)) was less than 10%. For the same compound, the inhibition at 10 µM (beta 1 (h)) was less than 10%, the inhibition at 1 µM (ORL1 (h) (NOP)) was less than 10% and the inhibition at 10 µM (ORL1 (h) (NOP)) was less than 10%. For the same compound, the inhibition at 1 µM (5-HT1B) was less than 10%, the inhibition at 10 µM (5-HT1B) was 15.6% and the inhibition at 1 µM (5-HT7 (h)) was less than 10%. It also gave an inhibition at 10 µM (5-HT7 (h)) of less than 10%, an inhibition at 1 µM (V1a (h)) of less than 10% and an inhibition at 10 µM (V1a (h)) of 20.3%. For the same compound, the inhibition at 1 µM (5-HT-T) was less than 10%, the inhibition at 10 µM (5-HT-T) was less than 10% and the EC50 (5HT1B; agonist) was greater than 12.5 µM. For the same compound, the IC50 (5HT1B; antagonist) was greater than 12.5 µM, the EC50 (A2A; agonist) was greater than 12.5 µM and the IC50 (A2A; antagonist) was greater than 12.5 µM. It also gave an EC50 (ADRB1; agonist) greater than 12.5 µM, an IC50 (ADRB1; antagonist) greater than 12.5 µM and an EC50 (ETA; agonist) greater than 10 µM. It also gave an IC50 (ETA; antagonist) greater than 10 µM, an EC50 (MOP; agonist) greater than 12.5 µM and an IC50 (MOP; antagonist) greater than 12.5 µM. It also gave an EC50 (V1A; agonist) greater than 10 µM, an IC50 (V1A; antagonist) greater than 10 µM and an activity at 1 µM (Aurora-A(h)) of 97%. It also gave an activity at 10 µM (Aurora-A(h)) of 102%, an activity at 1 µM (FGFR1(h)) of 103% and an activity at 10 µM (FGFR1(h)) of 125%. It also gave an activity at 1 µM (GSK3α(h)) of 93%, an activity at 10 µM (GSK3α(h)) of 104% and an activity at 1 µM (JAK3(h)) of 109%. It also gave an activity at 10 µM (JAK3(h)) of 114%, an activity at 1 µM (ROCK-I(h)) of 108% and an activity at 10 µM (ROCK-I(h)) of 110%. For the same compound, the activity at 1 µM (SAPK4(h)) was 100%, the activity at 10 µM (SAPK4(h)) was 112% and the activity at 1 µM (ZIPK(h)) was 113%. For the same compound, the activity at 10 µM (ZIPK(h)) was 120%, the IC50 [1] was greater than 30 µM and the inhibition at 100 mg/kg ([2]; 1 h post-dose) was 86 ± 6.7%. It also gave an inhibition at 100 mg/kg ([2]; 2 h post-dose) of 89 ± 7.1%, an inhibition at 100 mg/kg ([2]; 4 h post-dose) of 72 ± 14% and an inhibition at 100 mg/kg ([2]; 7 h post-dose) of 75 ± 7.5%. The inhibition at 100 mg/kg ([2]; 12 h post-dose) was 62 ± 17%, the inhibition at 100 mg/kg ([2]; 18 h post-dose, without statistical significance) was 30 ± 60% and the EC50 at 100 mg/kg ([2]; concentration in 5-fold diluted plasma, read-out: compound concentration for 50% inhibition of ex vivo IL-17A) was 0.24 to 0.86 µM. For the same compound, the “disease incidence at day 35” value ([3]; 3 mg/kg BID) was 100%, the “reduction of clinical arthritis scores (AUC) vs vehicle, efficacy % inhibition” value (“reduction … efficacy % inhibition” below) ([3]; 3 mg/kg BID oral) was 30% and the “disease incidence at day 35” value ([3]; 10 mg/kg BID) was 89%. The “reduction … efficacy % inhibition” value ([3]; 10 mg/kg BID oral) was 44%, the “disease incidence at day 35” value ([3]; 30 mg/kg BID) was 80% and the “reduction … efficacy % inhibition” value ([3]; 30 mg/kg BID oral) was 66%. The “disease incidence at day 35” value ([3]; 60 mg/kg QD) was 100%, the “reduction … efficacy % inhibition” value ([3]; 60 mg/kg QD oral, p > 0.05) was 13% and the “disease incidence at day 35” value ([3]; 100 mg/kg BID) was 45%. For the same compound, the “reduction … efficacy % inhibition” value ([3]; 100 mg/kg BID oral) was 88%, the “inhibition of total histopathology score” value ([3]; 100 mg/kg, BID, oral) was 94% and the “maximum inhibition for final arthritic score” value ([3]; 100 mg/kg, BID, oral) was 88%. For the same compound, the “maximum inhibition of clinical score” value ([3]; mouse, in vivo) was ~ 90%, the genetic toxicity (TK6) was “negative” and the thymus finding (dogs) was “increase in medium-sized thymocytes/mitoses”.
